Tests used:
Test in all cases: cell-based
Parameters in all cases: NanoBRET live-cell target engagement; % occupancy from displacement of tracer K10 on NanoLuc-kinase fusions, mean n=3
Conditions in all cases: HEK293, read-out: % inhibition
[1] = target: BRSK1 (Homo sapiens, UniProt Q8TDC3)
How it was run: (§1)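 Live-cell NanoBRET target engagement: cells expressing kinase–NanoLuc fusion with tracer treated with compound 2 h at 37 °C, 5% CO2. BRET read from donor (450 nm) and acceptor (610/630 nm) emission with 20 μM extracellular NanoLuc inhibitor; % occupancy calculated relative to tracer+DMSO and zero-BRET controls.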

[2] = target: BRSK2 (Homo sapiens, UniProt Q8IWQ3)
How it was run: as §1

[3] = target: CAMK2D (Homo sapiens, UniProt Q13557)
How it was run: as §1

[4] = target: CDK15 (Homo sapiens, UniProt Q96Q40)
Chain of CDK15 (Q96Q40 whole entry): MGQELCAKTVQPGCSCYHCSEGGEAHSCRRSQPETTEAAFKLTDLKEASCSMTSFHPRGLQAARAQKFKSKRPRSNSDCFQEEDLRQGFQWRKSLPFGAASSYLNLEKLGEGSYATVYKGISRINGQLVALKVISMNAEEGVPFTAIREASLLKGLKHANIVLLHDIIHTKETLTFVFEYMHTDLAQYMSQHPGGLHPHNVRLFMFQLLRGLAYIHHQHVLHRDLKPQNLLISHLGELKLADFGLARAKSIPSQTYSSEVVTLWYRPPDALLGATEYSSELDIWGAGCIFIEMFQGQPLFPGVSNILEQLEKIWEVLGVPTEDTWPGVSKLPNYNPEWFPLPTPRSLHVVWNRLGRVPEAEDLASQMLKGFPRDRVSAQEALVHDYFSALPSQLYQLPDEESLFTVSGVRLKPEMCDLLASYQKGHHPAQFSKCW
How it was run: as §1

[5] = target: CDK6 (Homo sapiens, UniProt Q00534)
Chain of CDK6 (Q00534 whole entry): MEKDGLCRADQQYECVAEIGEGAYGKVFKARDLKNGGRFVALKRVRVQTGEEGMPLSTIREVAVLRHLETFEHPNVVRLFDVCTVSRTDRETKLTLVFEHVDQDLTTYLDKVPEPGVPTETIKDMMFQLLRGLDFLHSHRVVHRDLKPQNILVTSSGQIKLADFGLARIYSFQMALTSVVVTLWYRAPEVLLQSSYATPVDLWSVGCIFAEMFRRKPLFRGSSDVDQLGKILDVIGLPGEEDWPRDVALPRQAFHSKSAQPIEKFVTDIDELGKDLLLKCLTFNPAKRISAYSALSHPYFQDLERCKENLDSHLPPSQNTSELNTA
How it was run: as §1

[6] = target: CDKL3 (Homo sapiens, UniProt Q8IVW4)
How it was run: as §1

[7] = target: LATS2 (Homo sapiens, UniProt Q9NRM7)
How it was run: as §1

[8] = target: LRRK2 (Homo sapiens, UniProt Q5S007)
How it was run: as §1

[9] = target: MAP3K4 (Homo sapiens, UniProt Q9Y6R4)
How it was run: as §1

[10] = target: MAP3K9 (Homo sapiens, UniProt P80192)
Chain of MAP3K9 (P80192 whole entry): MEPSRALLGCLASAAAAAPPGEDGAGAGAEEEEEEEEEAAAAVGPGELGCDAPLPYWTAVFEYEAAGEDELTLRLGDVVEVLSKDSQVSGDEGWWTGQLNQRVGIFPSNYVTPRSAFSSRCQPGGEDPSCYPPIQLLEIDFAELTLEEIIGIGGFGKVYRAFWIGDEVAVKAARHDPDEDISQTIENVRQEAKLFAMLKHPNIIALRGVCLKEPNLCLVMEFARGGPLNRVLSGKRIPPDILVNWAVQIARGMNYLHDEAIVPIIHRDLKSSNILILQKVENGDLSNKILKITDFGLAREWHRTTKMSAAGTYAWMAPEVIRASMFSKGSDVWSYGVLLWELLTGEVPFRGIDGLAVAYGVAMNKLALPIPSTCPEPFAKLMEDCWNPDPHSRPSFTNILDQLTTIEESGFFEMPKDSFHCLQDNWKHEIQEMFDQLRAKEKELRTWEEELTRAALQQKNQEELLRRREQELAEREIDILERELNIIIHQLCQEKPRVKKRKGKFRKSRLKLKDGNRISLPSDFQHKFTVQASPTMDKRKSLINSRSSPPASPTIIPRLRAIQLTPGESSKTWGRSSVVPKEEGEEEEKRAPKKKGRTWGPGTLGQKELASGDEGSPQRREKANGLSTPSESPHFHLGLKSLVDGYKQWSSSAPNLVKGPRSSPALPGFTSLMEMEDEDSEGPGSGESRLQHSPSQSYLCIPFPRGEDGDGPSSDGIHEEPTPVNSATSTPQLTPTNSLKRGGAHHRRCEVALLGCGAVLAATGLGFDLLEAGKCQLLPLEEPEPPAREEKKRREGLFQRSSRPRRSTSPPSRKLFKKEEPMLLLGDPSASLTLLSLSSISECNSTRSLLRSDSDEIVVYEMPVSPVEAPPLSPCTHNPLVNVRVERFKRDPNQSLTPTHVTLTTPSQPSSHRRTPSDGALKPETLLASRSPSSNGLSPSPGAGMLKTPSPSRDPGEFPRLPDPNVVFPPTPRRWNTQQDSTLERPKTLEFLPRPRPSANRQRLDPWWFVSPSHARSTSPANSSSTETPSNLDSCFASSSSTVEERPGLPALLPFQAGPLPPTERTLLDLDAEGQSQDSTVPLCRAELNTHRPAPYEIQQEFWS
How it was run: as §1

[11] = target: MAPK11 (Homo sapiens, UniProt Q15759)
How it was run: as §1

[12] = target: MYLK3 (Homo sapiens, UniProt Q32MK0)
How it was run: as §1

[13] = target: NIM1K (Homo sapiens, UniProt Q8IY84)
How it was run: as §1

[14] = target: SLK (Homo sapiens, UniProt Q9H2G2)
How it was run: as §1

[15] = target: STK3 (Homo sapiens, UniProt Q13188)
Chain of STK3 (Q13188 whole entry): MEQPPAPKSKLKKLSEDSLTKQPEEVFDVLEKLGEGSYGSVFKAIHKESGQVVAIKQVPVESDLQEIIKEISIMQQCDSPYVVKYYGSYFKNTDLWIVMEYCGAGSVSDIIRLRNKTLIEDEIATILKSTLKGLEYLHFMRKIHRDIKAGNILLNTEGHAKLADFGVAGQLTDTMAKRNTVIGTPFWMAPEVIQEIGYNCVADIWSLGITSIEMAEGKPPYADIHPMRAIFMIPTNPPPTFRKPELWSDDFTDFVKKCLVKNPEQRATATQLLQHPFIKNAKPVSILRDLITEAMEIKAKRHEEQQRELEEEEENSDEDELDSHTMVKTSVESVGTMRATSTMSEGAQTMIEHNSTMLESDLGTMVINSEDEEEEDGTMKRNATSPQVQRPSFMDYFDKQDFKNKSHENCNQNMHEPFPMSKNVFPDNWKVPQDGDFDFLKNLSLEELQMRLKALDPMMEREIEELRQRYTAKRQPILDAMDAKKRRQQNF
How it was run: as §1

[16] = target: STK38 (Homo sapiens, UniProt Q15208)
How it was run: as §1

[17] = target: TNK2 (Homo sapiens, UniProt Q07912)
Chain of TNK2 (Q07912 whole entry): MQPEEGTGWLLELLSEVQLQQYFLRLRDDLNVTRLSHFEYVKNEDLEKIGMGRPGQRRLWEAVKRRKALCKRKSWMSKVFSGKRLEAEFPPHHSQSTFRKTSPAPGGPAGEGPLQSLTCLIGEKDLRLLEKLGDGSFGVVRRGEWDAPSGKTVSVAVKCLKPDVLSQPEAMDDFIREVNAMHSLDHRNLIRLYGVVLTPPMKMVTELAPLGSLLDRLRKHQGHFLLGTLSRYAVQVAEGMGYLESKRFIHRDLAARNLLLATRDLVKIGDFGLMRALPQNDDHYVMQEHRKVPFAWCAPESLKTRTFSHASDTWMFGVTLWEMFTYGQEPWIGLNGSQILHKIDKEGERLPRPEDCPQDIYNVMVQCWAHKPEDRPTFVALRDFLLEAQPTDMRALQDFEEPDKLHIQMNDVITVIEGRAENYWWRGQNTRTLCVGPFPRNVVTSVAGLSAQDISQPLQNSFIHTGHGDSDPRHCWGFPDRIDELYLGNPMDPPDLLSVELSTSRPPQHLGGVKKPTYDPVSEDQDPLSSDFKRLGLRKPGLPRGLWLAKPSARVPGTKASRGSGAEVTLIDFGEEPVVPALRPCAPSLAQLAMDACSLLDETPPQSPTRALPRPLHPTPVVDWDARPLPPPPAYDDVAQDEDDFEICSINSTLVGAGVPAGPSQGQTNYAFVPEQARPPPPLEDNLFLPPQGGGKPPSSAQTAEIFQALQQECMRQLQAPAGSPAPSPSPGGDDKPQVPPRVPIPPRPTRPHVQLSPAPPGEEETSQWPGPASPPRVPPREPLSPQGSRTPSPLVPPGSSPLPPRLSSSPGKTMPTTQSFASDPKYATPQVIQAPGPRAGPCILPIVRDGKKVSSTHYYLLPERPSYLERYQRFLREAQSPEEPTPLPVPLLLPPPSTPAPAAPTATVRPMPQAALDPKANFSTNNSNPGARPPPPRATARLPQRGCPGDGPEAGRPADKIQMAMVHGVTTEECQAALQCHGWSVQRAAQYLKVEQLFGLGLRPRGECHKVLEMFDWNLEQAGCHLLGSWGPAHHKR
How it was run: as §1

[18] = target: WEE2 (Homo sapiens, UniProt P0C1S8)
Chain of WEE2 (P0C1S8 whole entry): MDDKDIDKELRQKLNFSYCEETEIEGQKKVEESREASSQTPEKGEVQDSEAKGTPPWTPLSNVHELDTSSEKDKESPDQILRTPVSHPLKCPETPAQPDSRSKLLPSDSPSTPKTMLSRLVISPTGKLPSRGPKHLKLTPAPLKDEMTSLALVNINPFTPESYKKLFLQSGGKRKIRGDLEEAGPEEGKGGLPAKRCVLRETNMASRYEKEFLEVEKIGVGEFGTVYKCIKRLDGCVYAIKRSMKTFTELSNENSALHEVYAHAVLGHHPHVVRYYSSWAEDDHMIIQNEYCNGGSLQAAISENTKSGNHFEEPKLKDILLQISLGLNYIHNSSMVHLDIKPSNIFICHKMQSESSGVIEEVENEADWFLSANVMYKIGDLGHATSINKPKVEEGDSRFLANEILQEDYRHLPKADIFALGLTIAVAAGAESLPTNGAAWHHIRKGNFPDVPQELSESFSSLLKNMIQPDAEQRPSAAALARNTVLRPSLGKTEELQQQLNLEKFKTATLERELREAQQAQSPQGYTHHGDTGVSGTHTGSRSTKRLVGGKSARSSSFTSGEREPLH
How it was run: as §1

Chain of BRSK1 (Q8TDC3 whole entry, the tested form may be a part): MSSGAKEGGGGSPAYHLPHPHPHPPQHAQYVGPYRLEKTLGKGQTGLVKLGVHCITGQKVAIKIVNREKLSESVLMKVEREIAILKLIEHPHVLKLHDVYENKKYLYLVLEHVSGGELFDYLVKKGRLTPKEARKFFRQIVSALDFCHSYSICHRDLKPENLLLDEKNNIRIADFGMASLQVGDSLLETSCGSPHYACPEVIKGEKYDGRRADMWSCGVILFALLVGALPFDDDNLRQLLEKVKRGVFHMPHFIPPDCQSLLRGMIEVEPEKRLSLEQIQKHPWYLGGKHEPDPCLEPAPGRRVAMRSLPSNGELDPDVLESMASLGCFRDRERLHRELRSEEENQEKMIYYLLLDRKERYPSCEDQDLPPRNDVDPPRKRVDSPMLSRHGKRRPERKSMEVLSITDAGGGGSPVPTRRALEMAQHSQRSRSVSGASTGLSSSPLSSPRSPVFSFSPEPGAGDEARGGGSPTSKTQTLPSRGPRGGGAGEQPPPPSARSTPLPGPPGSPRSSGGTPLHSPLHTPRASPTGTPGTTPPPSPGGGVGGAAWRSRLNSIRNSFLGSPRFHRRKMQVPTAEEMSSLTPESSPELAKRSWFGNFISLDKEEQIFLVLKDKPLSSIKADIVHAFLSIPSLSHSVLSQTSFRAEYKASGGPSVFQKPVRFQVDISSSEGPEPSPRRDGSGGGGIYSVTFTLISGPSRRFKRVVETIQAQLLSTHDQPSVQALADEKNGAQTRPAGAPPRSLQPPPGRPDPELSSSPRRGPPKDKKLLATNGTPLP

inhibition at 1 µM [1]: -1%
inhibition at 1 µM [2]: 3%
inhibition at 1 µM [3]: 3%
inhibition at 1 µM [4]: 3%
inhibition at 1 µM [5]: 0%
inhibition at 1 µM [6]: 8%
inhibition at 1 µM [7]: -10%
inhibition at 1 µM [8]: -9%
inhibition at 1 µM [9]: -1%
inhibition at 1 µM [10]: -1%
inhibition at 1 µM [11]: 0%
inhibition at 1 µM [12]: -8%
inhibition at 1 µM [13]: -3%
inhibition at 1 µM [14]: 36%
inhibition at 1 µM [15]: 1%
inhibition at 1 µM [16]: 1%
inhibition at 1 µM [17]: 13%
inhibition at 1 µM [18]: -4%
Compound: C[C@@H](Oc1cc(-c2cnn(C3CCNCC3)c2)cnc1N)c1c(Cl)ccc(F)c1Cl [crizotinib]

Source: publication PMC8449129, “Single tracer-based protocol for broad-spectrum kinase profiling in live cells with NanoBRET” (STAR Protocols, 2021)
